Results reported in US20120046302A1, “METHODS OF TREATING CNS DISORDERS” (priority 2008, published 2012).
Counter-ions that a name gives are not always drawn.

Key:
5-HT2C = biological target: T1, 5-HT2C (Homo sapiens, UniProt P28335); settings: background; cited from earlier work
T1 sequence (P28335 33-458): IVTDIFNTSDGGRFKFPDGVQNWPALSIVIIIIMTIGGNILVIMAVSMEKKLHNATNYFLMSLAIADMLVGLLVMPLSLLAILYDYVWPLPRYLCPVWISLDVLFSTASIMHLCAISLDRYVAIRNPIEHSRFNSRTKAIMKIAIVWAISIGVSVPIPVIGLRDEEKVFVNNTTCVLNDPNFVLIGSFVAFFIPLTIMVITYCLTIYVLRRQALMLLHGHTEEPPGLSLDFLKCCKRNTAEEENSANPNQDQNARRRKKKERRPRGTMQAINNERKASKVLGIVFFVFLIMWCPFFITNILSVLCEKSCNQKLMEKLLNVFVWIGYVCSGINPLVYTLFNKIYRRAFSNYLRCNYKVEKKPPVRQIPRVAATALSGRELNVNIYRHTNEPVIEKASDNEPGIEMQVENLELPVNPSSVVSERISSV

histamine H1 = histamine H1 (Homo sapiens, UniProt P35367); settings: background; cited from earlier work
[1] = test system: adrenergic receptor sites; settings: background; cited from earlier work
NMDA receptor = settings: noncompetitive NMDA receptor antagonists; background; cited from earlier work
[2] = test system: patients with bipolar I disorder experiencing a manic or mixed episode; assay: Multicenter, open-label study of memantine hydrochloride in acute treatment of hospitalized patients with bipolar I disorder (Example 1); format: in vivo, human; settings: for MRS Total Score, Change at Day 21 (LOCF), Mean ± SEM / YMRS Total Score, Change at Day 21 (LOCF), Mean ± SEM / MRS Total Score, Change at Day 21 (OC), Mean ± SEM / YMRS Total Score, Change at Day 21 (OC), Mean ± SEM / CGI-I Rating, Day 21, Mean ± SEM / CGI-S Rating, Change at Day 21, Mean ± SEM / MADRS Total Score, Change at Day 21, Mean ± SEM / PANSS Total Score, Change at Day 21, Mean ± SEM / PANSS-EC Score, Change at Day 21, Mean ± SEM: 21 days; for MRS Total Score, Change at Day 21 (LOCF), Mean ± SEM / YMRS Total Score, Change at Day 21 (LOCF), Mean ± SEM / CGI-I Rating, Day 21, Mean ± SEM / CGI-S Rating, Change at Day 21, Mean ± SEM / MADRS Total Score, Change at Day 21, Mean ± SEM / PANSS Total Score, Change at Day 21, Mean ± SEM / PANSS-EC Score, Change at Day 21, Mean ± SEM / MRS Response, % of patients / MRS Response, n of patients / YMRS Response, % of patients / YMRS Response, n of patients: ITT; for MRS Total Score, Change at Day 21 (OC), Mean ± SEM / YMRS Total Score, Change at Day 21 (OC), Mean ± SEM: observed cases; for CGI-I Rating, Day 21, Mean ± SEM / CGI-S Rating, Change at Day 21, Mean ± SEM / MADRS Total Score, Change at Day 21, Mean ± SEM / PANSS Total Score, Change at Day 21, Mean ± SEM / PANSS-EC Score, Change at Day 21, Mean ± SEM / MRS Response, % of patients / MRS Response, n of patients / YMRS Response, % of patients / YMRS Response, n of patients: LOCF; for MRS Response, % of patients / MRS Response, n of patients / YMRS Response, % of patients / YMRS Response, n of patients: Day 21, response = ≧50% reduction in total score from baseline
Source text: The entrance criteria for the patients included: Hospitalized adult inpatients, with bipolar I disorder by DSM-IV-TR criteria • Manic or mixed episode: ≧20 on the Young Mania Rating Scale (YMRS), with and without psychotic features; • Diagnosis based on clinical evaluation and confirmed using the Structured Clinical Interview for DSM Disorders. The following comorbid psychiatric diagnoses were allowed to enroll: Attention deficit hyperactivity disorder [ADHD], conduct disorder, obsessive-compulsive disorder, anxiety disorders, and substance abuse. Additional psychotropic medications were not allowed. Patients were assigned to 21-days of treatment in one of three groups: Group 1, 20 mg memantine hydrochloride per day (range 20-30 mg memantine per day); Group 2, 30 mg memantine hydrochloride per day (range 20-40 mg memantine per day); Group 3, 40 mg memantine hydrochloride per day (range 30-50 mg memantine per day). […] Dose modification was continued to study completion or early termination. Efficacy measures included the Young Mania Rating Scale (YMRS) and the Mania Rating Scale (MRS) (≧50% reduction in total score from baseline). The change from baseline was also assessed using the Positive and Negative Syndrome Scale (PANSS) in patients with psychiatric symptoms, Positive and Negative Syndrome Scale-Excited Component (PANSS-EC), Clinical Global Impression Severity (CGI-S) and Improvement (CGI-I) scores, and the change from baseline in the Montgomery Asberg Depression Rating Scale (MADRS). […] The mean duration of treatment was 16.1 days (Group I), 14.7 days (Group 2) and 17.3 days (Group 3).

[3] = test system: ICV ouabain-induced motoric hyperactivity; settings: ouabain treated (ICV) versus sham 53.1±SD 50.0; El-Mallakh et al. 2003; cited from earlier work
[4] = Group 1: 20 mg per day (range 20-30 mg), n=12
[5] = Group 1: 20 mg per day (range 20-30 mg), n=6
[6] = Group 2: 30 mg per day (range 20-40 mg), n=11
[7] = Group 2: 30 mg per day (range 20-40 mg), n=6
[8] = Group 3: 40 mg per day (range 30-50 mg), n=10
[9] = Group 3: 40 mg per day (range 30-50 mg), n=8

Chain of histamine H1 (P35367 whole entry): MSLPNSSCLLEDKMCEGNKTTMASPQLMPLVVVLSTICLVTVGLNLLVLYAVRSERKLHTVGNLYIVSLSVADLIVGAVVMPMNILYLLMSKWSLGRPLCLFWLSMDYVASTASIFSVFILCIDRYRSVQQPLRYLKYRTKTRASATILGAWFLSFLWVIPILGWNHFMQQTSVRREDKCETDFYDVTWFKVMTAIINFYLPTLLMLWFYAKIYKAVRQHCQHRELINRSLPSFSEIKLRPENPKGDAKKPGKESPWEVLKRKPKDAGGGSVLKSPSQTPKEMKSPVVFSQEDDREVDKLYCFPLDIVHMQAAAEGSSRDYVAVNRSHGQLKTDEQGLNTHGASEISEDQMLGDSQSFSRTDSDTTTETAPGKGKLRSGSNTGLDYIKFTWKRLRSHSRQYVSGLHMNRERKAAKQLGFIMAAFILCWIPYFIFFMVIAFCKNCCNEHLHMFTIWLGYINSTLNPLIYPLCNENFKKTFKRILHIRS

## CN(C)C(=O)N[C@H]1CC[C@H](CCN2CCN(c3cccc(Cl)c3Cl)CC2)CC1 [Cariprazine hydrochloride, trans-1-{4-[2-[4-(2,3-dichlorophenyl)-piperazin-1-yl]-ethyl]-cyclohexyl}-3,3-dimethyl-urea hydrochloride]
5-HT2C
  Potency at 5-HT2C receptor site (in words): low potency
Histamine H1
  Potency at histamine H1 receptor site (in words): low potency
[1]
  Potency at adrenergic receptor sites (in words): low potency

## CC12CC3CC(C)(C1)CC(N)(C3)C2 [Memantine, 1-amino-3,5-dimethyl adamantane]
NMDA receptor
  Affinity for the NMDA receptor (in words): moderate affinity

## CC12CC3CC(C)(C1)CC(N)(C3)C2 [memantine hydrochloride]
[2]; [4]
  MRS Total Score, Change at Day 21 (LOCF), Mean ± SEM: −9.8 ± 2.2
  YMRS Total Score, Change at Day 21 (LOCF), Mean ± SEM: −9.5 ± 2.8
[2]; [5]
  MRS Total Score, Change at Day 21 (OC), Mean ± SEM: −15.3 ± 1.7
  YMRS Total Score, Change at Day 21 (OC), Mean ± SEM: −17.0 ± 1.9
[2]; Group 1: 20 mg per day, n=12
  CGI-I Rating, Day 21, Mean ± SEM: 3.3 ± 0.5
  CGI-S Rating, Change at Day 21, Mean ± SEM: −0.8 ± 0.3
  MADRS Total Score, Change at Day 21, Mean ± SEM: −3.4 ± 1.8
  PANSS Total Score, Change at Day 21, Mean ± SEM: −5.1 ± 3.9
  PANSS-EC Score, Change at Day 21, Mean ± SEM: −0.7 ± 1.5
  MRS Response, % of patients: 50.0%
  MRS Response, n of patients: 6 n
  YMRS Response, % of patients: 50.0%
  YMRS Response, n of patients: 6 n
[2]; [6]
  MRS Total Score, Change at Day 21 (LOCF), Mean ± SEM: −7.4 ± 2.6
  YMRS Total Score, Change at Day 21 (LOCF), Mean ± SEM: −6.4 ± 3.8
[2]; [7]
  MRS Total Score, Change at Day 21 (OC), Mean ± SEM: −13.0 ± 2.1
  YMRS Total Score, Change at Day 21 (OC), Mean ± SEM: −15.5 ± 1.5
[2]; Group 2: 30 mg per day, n=11
  CGI-I Rating, Day 21, Mean ± SEM: 3.6 ± 0.5
  CGI-S Rating, Change at Day 21, Mean ± SEM: −0.7 ± 0.4
  MADRS Total Score, Change at Day 21, Mean ± SEM: 0.0 ± 2.7
  PANSS Total Score, Change at Day 21, Mean ± SEM: −1.5 ± 5.8
  PANSS-EC Score, Change at Day 21, Mean ± SEM: −0.5 ± 1.8
  MRS Response, % of patients: 27.3%
  MRS Response, n of patients: 3 n
  YMRS Response, % of patients: 45.5%
  YMRS Response, n of patients: 5 n
[2]; [8]
  MRS Total Score, Change at Day 21 (LOCF), Mean ± SEM: −7.2 ± 2.0
  YMRS Total Score, Change at Day 21 (LOCF), Mean ± SEM: −7.9 ± 2.4
[2]; [9]
  MRS Total Score, Change at Day 21 (OC), Mean ± SEM: −9.3 ± 1.8
  YMRS Total Score, Change at Day 21 (OC), Mean ± SEM: −10 ± 2.3
[2]; Group 3: 40 mg per day, n=10
  CGI-I Rating, Day 21, Mean ± SEM: 2.9 ± 0.5
  CGI-S Rating, Change at Day 21, Mean ± SEM: −0.6 ± 0.3
  MADRS Total Score, Change at Day 21, Mean ± SEM: −3.3 ± 1.7
  PANSS Total Score, Change at Day 21, Mean ± SEM: −7.7 ± 3.8
  PANSS-EC Score, Change at Day 21, Mean ± SEM: −0.7 ± 1.4
  MRS Response, % of patients: 10.0%
  MRS Response, n of patients: 1 n
  YMRS Response, % of patients: 30.0%
  YMRS Response, n of patients: 3 n
[2]; overall conclusion of Example 1
  Effectiveness in the treatment of acute mania associated with bipolar disorder (in words): surprisingly effective

## CC1(C)CC(C)(C)CC(C)(N)C1 [neramexane, 1-amino-1,3,3,5,5-pentamethylcyclohexane]
NMDA receptor
  Affinity for the NMDA receptor (in words): moderate affinity

## C[C@@H]1O[C@@H](O[C@H]2C[C@@H](O)[C@]3(CO)[C@H]4[C@H](O)C[C@]5(C)[C@@H](C6=CC(=O)OC6)CC[C@]5(O)[C@@H]4CC[C@]3(O)C2)[C@H](O)[C@H](O)[C@H]1O [ouabain]
[3]
  Open field exploratory activity: 258.7±316.6 squares traversed
